Values of other authors, collected in patent US20110104272A1 (DEPOMED, INC., priority 2009, published 2011).

Structure (SMILES) | solubility in water (in words)
CC(=O)Nc1ccc(O)cc1 [Acetaminophen, N-(4-hydroxyphenyl)acetamine] | poorly soluble in water
CNC[C@H](O)c1cccc(O)c1 [Phenylephrine, (R)-3-[-1-hydroxy-2-(methylamino)ethyl]phenol] | highly soluble in water
